{"source": "patent US9023853B2", "about": "“Janus kinase 2 (JAK2) inhibitor for the treatment of lupus” (Cephalon, Inc., priority 2010, dated 2015)", "type_in_all_cases": "in vivo, mouse", "key": {"NZM mice [1]": {"system": "NZM mice", "experiment": "Survival in NZM lupus model", "settings": "for Age (d), MEAN: NZM group mean; for Age: NZM individual mouse (survival; EOS = 310 days of age); for survival at EOS: NZM mice", "experimental": "Six week old lupus-prone, female, MRL/lpr (Jackson Labs, #000485) and non-lupus prone control MRL/MpJ (Jackson Labs, #000486) mice were obtained from Jackson Laboratories (Bar Harbor, Me.) at 6-weeks of age. Spontaneous SLE-prone NZBWF1/J (NZM) (catalog no. 100008) female mice and non-lupus prone (within time from of experiment) NZW/LacJ (catalog no. 001058) female mice were obtained from Jackson Laboratories (Bar Harbor, Me.) at 15-weeks of age. All mice were maintained on a […] light/dark cycle, with food and water available ad libitum. All experimental animal procedures were approved by and in accordance to the regulations of the Institutional Animal Care and Use Committee (IACUC) of Cephalon, Inc; approved IACUC protocol #03-040 and #03-03-041.\nThe NZM strain acts as a mouse model of genetically-driven, progressive, systemic lupus erythematosus (SLE). The evolution of the disease in NZM mice is characterized by an abnormal polyclonal B cell activation with a high production of various autoantibodies, including those directed against DNA and other nuclear antigens, and against cytoskeleton proteins. Elevated circulating immune complexes can lead to fatal glomerulonephritis in older mice.\n(§1) Age mated, female, NZM or NZW/LacJ, mice were matured for the study of lupus nephritis for a total of 7 months or 210 days at which time urine was collected for proteinuria detection. Mice with 0.5-1.0 mg/ml of urine protein as determined by an optical density-based total protein precipitation assay and cross-checked for 30-300 mg/dl of protein as determined by a stick assay were considered proteinuria positive and selected for study entry. Groups were normalized to contain a Gaussian distribution of proteinuria positive animals (i.e., ⅓ low proteinuria, ⅓ medium, ⅓ high) then randomized between groups before ear marking and taking baseline measures including urine and serum collections. A total of five mice from the total population were randomly selected for baseline kidney histology evaluation. Treatments and tests for each group are as described in FIG. 12. Briefly, with a minimum of 10 mice per group, COMPOUND A was administered at 100 mg/kg or 55 mg/kg, both twice a day and orally. […] Vehicle included 3% DMSO, 10% Solutol and 87% PBS. […] End-stage lupus nephritis was evaluated by histopathology and scored by a board certified pathologist for the assessment of total renal damage in diseased animals using the scoring method described by Smith et al (Smith, Dong et al. 2007). […] Day-98 or “end of treatment/study” represents 310 days of age for the NZM animals."}, "anti-dsDNA antibodies": {"system": "anti-dsDNA antibodies", "experiment": "Serum anti-dsDNA ANA ELISA in NZM mice", "settings": "for A: Anti-dsDNA IgG, MEAN: NZM group mean; for A: Anti-dsDNA IgG: NZM individual mouse; for serum anti-dsDNA ANAs decrease compared to vehicle: NZM mice", "source_text": "The measurement of anti-dsDNA and anti-Smith antigen antibodies was done by an in-house generated custom ELISA assay. Chromatin coated plates were purchased from Inova Diagnostics, Inc. Purified bovine thymus dsDNA (Sigma, St. Louis, […].) or purified bovine Smith antigen (GenWay, San Diego, Calif.) were used as coating antigen for the detection of anti-dsDNA and anti-Smith Ag antibodies respectively. Coated plates were washed with Borate Sulfate Saline (BSS) and blocked with BSS containing 1% Bovine Serum Albumin (BSA) and 0.1% Tween-20 detergent. Standard curves were generated using mouse anti-chromatin antibody (Sigma, 2B1) or 25 week old MRL/lpr serum. Mouse anti-dsDNA antibody (Abcam, Cambridge, Mass.), or mouse anti-Smith antigen antibody (Abcam) were used as standards for each assay. Secondary antibody was purchased from Abcam (goat anti-mouse pAb-HRP), the substrate was purchased from Rockland (Gilbertsville, Pa.) (TMB), and stop reaction buffer was generated using 1 mL of concentrated sulfuric acid into 20 mL of dH2O. Developed plates were read using a Victor-X4 spectrophotometer reading at […] with a reference wavelength of 570 nm. For all ANA ELISA assays, values below the limit of detection set by the lowest point along the standard or set by the manufacturer were considered out of range and were not estimated, but assumed the lowest point along the standard curve for that particular assay.\nas §1"}, "NZM mice [2]": {"system": "NZM mice", "experiment": "Urinalysis total urine protein (proteinuria) in NZM mice", "settings": "for I: Proteinuria, MEAN: NZM group mean; for I: Proteinuria: NZM individual mouse", "experimental": "Urine samples were acid precipitated for total protein recovery and analysis. Samples for which enough urine remained were used for Uristix® leukouria analysis (MRL/lpr study only). Briefly, a standard protein solution was prepared from normal mouse sera and was used as a standard for mouse urinary protein assay by turbidity. Standard preparation was as follows: 0, 5, 10, 15, 20, 30, 40, and 50 μL of a 4 mg/mL mouse sera standard protein solution as provided in the kit were added in duplicate into two columns. PBS was added to individual wells to adjust the final volume to 50 μL. For urine sample preparation, urine samples were centrifuged at 9880×g for 3 minutes using a tabletop micro-centrifuge. Urine supernatant (1-50 μL) was added in duplicate. PBS was added to adjust the volume to 50 μL total. For the turbidity assay: 25 μL of 0.1 N HCl was added into blank columns and 250 μL of 3% sulfosalicyclic acid into the test columns. The microplate was incubated for 10 minutes at RT and plates were read using an ELISA reader with single beam at 450 nm. For the Uristix® strip assay, strips were laid out and labeled. Twenty microliters of urine were placed onto each test strip square and incubated for at least 30 seconds before the result was recorded. For all total urine analysis plate-based assays, values below the limit of detection set by the lowest point along the standard or set by the manufacturer were considered out of range and were not estimated, but assumed the lowest point along the standard curve for that particular assay.\nas §1"}}, "note": "Values joined by “and” are separate entries in the source; they are usually repeats but may differ in a detail not shown here. Equal entries are not always repeated."}
{"smiles": "CN1CCN(c2cccc(Nc3nc4c(-c5ccc(S(C)(=O)=O)cc5)cccn4n3)c2)CC1", "note": "[COMPOUND A, [8-(4-methanesulfonyl-phenyl)-[1,2,4]triazolo[1,5-a]pyridin-2-yl]-[3-(4-methyl-piperazin-1-yl)-phenyl]-amine]", "values": [{"measurement": "Age (d), MEAN", "setting": "NZM mice [1]; CMPD A 55 mpk bid", "result": 300.2, "unit": "days"}, {"measurement": "Age (d), MEAN", "setting": "NZM mice [1]; CMPD A 100 mpk bid", "result": 291.8, "unit": "days"}, {"measurement": "Age", "setting": "NZM mice [1]; CMPD A 55 mpk bid, 55 mg/kg", "result": "310 d (9×) and 212 d"}, {"measurement": "Age", "setting": "NZM mice [1]; CMPD A 100 mpk bid, 100 mg/kg", "result": "310 d (7×) and 268 d (2×) and 212 d"}, {"measurement": "survival at EOS", "setting": "NZM mice [1]; COMPOUND A 55 mg/kg orally twice a day", "result": 90, "unit": "%"}, {"measurement": "survival at EOS", "setting": "NZM mice [1]; COMPOUND A 100 mg/kg orally twice a day", "result": 70, "unit": "%"}, {"measurement": "A: Anti-dsDNA IgG, MEAN", "setting": "anti-dsDNA antibodies; CMPD A 55 mpk bid", "result": 16.4}, {"measurement": "A: Anti-dsDNA IgG, MEAN", "setting": "anti-dsDNA antibodies; CMPD A 100 mpk bid", "result": 14.4}, {"measurement": "A: Anti-dsDNA IgG", "setting": "anti-dsDNA antibodies; CMPD A 55 mpk bid, 55 mg/kg", "result": "20.6 and 39.4 and 9.4 and 12.6 and 12.7 and 7.5 and 15.2 and 16.7 and 19.3 and 10.8"}, {"measurement": "A: Anti-dsDNA IgG", "setting": "anti-dsDNA antibodies; CMPD A 100 mpk bid, 100 mg/kg", "result": "13.4 and 18.2 and 9.6 and 13.8 and 11.5 and 6.6 and 20.5 and 5.1 and 26.5 and 19.2"}, {"measurement": "serum anti-dsDNA ANAs decrease compared to vehicle", "setting": "anti-dsDNA antibodies; COMPOUND A 55 mg/kg, over course of disease", "result": 67.0, "unit": "%"}, {"measurement": "serum anti-dsDNA ANAs decrease compared to vehicle", "setting": "anti-dsDNA antibodies; COMPOUND A 100 mg/kg, over course of disease", "result": 73.9, "unit": "%"}, {"measurement": "I: Proteinuria, MEAN", "setting": "NZM mice [2]; CMPD A 55 mpk bid", "result": 0.56, "unit": "mg/mL"}, {"measurement": "I: Proteinuria, MEAN", "setting": "NZM mice [2]; CMPD A 100 mpk bid", "result": 1.32, "unit": "mg/mL"}, {"measurement": "I: Proteinuria", "setting": "NZM mice [2]; CMPD A 55 mpk bid, 55 mg/kg", "result": "0.41 mg/mL (2×) and 0.50 mg/mL and 0.74 mg/mL and 0.48 mg/mL (2×) and 0.52 mg/mL and 1.11 mg/mL and 0.37 mg/mL and 0.61 mg/mL"}, {"measurement": "I: Proteinuria", "setting": "NZM mice [2]; CMPD A 100 mpk bid, “0.00” = BQL, 100 mg/kg", "result": "0.48 mg/mL and 0.55 mg/mL and 0.70 mg/mL and 0.53 mg/mL and 0.44 mg/mL and 0.11 mg/mL and 0.00 mg/mL (3×) and 10.39 mg/mL"}, {"measurement": "total urine protein decrease compared to vehicle", "setting": "NZM mice [2]; NZM mice, COMPOUND A 55 mg/kg, over course of disease", "result": 76.25}, {"measurement": "total urine protein decrease compared to vehicle", "setting": "NZM mice [2]; NZM mice, COMPOUND A 100 mg/kg, over course of disease", "result": 81.8, "unit": "%"}, {"measurement": "urine protein levels relative to age-matched, non-lupus control mice", "setting": "NZM mice [2]; NZM mice, COMPOUND A treatment, FIG. 17", "result": "below the protein levels of age-matched, non-lupus control mice"}]}
{"smiles": "O=P1(N(CCCl)CCCl)NCCCO1", "note": "(stereo not shown) [CTX, cyclophosphamide, reference compound]", "values": [{"measurement": "Age (d), MEAN", "setting": "NZM mice [1]; CTX 50 mpk 1 × wk", "result": 284.9, "unit": "days"}, {"measurement": "Age", "setting": "NZM mice [1]; CTX 50 mpk 1 × wk", "result": "227 d and 310 d (7×) and 212 d and 240 d"}, {"measurement": "survival at EOS", "setting": "NZM mice [1]; CTX 50 mg/kg once weekly ip", "result": 70, "unit": "%"}, {"measurement": "A: Anti-dsDNA IgG, MEAN", "setting": "anti-dsDNA antibodies; CTX 50 mpk 1 × wk", "result": 30.9}, {"measurement": "A: Anti-dsDNA IgG", "setting": "anti-dsDNA antibodies; CTX 50 mpk 1 × wk", "result": "13.4 and 6.9 and 22.2 and 13.2 and 40.3 and 9.6 and 65.1 and 52.4 and 24.3 and 61.9"}, {"measurement": "serum anti-dsDNA ANAs decrease compared to vehicle", "setting": "anti-dsDNA antibodies; CTX 50 mg/kg once weekly ip", "result": 65.3, "unit": "%"}, {"measurement": "I: Proteinuria, MEAN", "setting": "NZM mice [2]; CTX 50 mpk 1 × wk", "result": 2.8, "unit": "mg/mL"}, {"measurement": "I: Proteinuria", "setting": "NZM mice [2]; CTX 50 mpk 1 × wk", "result": "11.09 mg/mL and 0.86 mg/mL and 1.44 mg/mL and 0.76 mg/mL and 1.30 mg/mL and 0.71 mg/mL and 8.84 mg/mL and 0.96 mg/mL and 0.58 mg/mL and 1.50 mg/mL"}, {"measurement": "total urine protein decrease compared to vehicle", "setting": "NZM mice [2]; NZM mice, CTX 50 mg/kg once weekly ip", "result": 67.1, "unit": "%"}]}
{"smiles": "C[C@@H]1C[C@H]2[C@@H]3CCC4=CC(=O)C=C[C@]4(C)[C@@]3(F)[C@@H](O)C[C@]2(C)[C@@]1(O)C(=O)CO", "note": "[Dex, dexamethasone, reference compound]", "values": [{"measurement": "Age (d), MEAN", "setting": "NZM mice [1]; Dex 1.5 mpk 3 × wk", "result": 261.4, "unit": "days"}, {"measurement": "Age", "setting": "NZM mice [1]; Dex 1.5 mpk 3 × wk", "result": "291 d (2×) and 240 d (3×) and 268 d and 310 d (2×)"}, {"measurement": "A: Anti-dsDNA IgG, MEAN", "setting": "anti-dsDNA antibodies; Dex 1.5 mpk 3 × wk", "result": 42.7}, {"measurement": "A: Anti-dsDNA IgG", "setting": "anti-dsDNA antibodies; Dex 1.5 mpk 3 × wk", "result": "27.2 and 18.9 and 20.0 and 79.5 and 167.5 and 27.8 and 16.2 and 10.9 and 17.1"}, {"measurement": "I: Proteinuria, MEAN", "setting": "NZM mice [2]; Dex 1.5 mpk 3 × wk", "result": 7.86, "unit": "mg/mL"}, {"measurement": "I: Proteinuria", "setting": "NZM mice [2]; Dex 1.5 mpk 3 × wk", "result": "8.43 mg/mL and 10.19 mg/mL (2×) and 11.02 mg/mL and 8.47 mg/mL and 0.35 mg/mL and 7.16 mg/mL and 0.55 mg/mL and 12.36 mg/mL and 9.89 mg/mL"}]}
